Assay results as given in US7989495B2, “Compositions and methods for inhibiting NF-κB mediated tumorigenicity and adhesion dependent survival of cancer cells” (University of Utah Research Foundation, priority 2002, dated 2011).

Legend:
[1] = test system: DLD-1 colon cancer cell line; assay: Cell proliferation assay (crystal violet, 590 nm); assay type: cell-based
Experimental: (§1) DLD-1, HCT-116, and HT-29 colon cancer cell lines were obtained from the ATCC collection and were cultured in Dulbecco's Modification of Eagle's Medium supplemented with 10% fetal bovine serum, glutamine, penicillin, and streptomycin. 293 cells stably transfected with COX-2 (293-COX-2) under the control of a ponasterone sensitive promoter were cultured in Dulbecco's Modification of Eagle's Medium supplemented with 10% fetal bovine serum, 400 μg/ml of zeocin, 400 μg/ml of G418, glutamine, penicillin, and streptomycin. For induction of COX-2 protein expression, 293-COX-2 cells were cultured for 48 hours in media supplemented with 1 μg/ml of ponasterone. All cells were cultured at 37° C. in a humidified incubator with a 5% CO2 atmosphere.
(§2) For the cell proliferation assay, cells were dispersed and plated at 40,000 cells/well in 96-well dishes. At various days in culture, the cells were gently washed twice with 100 μl/well of ice-cold blocking buffer (1% radioimmunoassay grade BSA in PBS) and twice with 100 μl/well of ice-cold PBS. The cells were fixed for 10 min in 100% ice-cold methanol (100 μl/well), then allowed to air-dry. The cells were stained with 100μl/well of 0.1% crystal violet in H2O for 10 minutes, then washed gently four times with dd H20 and four times with PBS. The plates were then air-dried completely. The stained cells were then solubilized in 1% sodium deoxycholate, and the plates read at 590 nm in a spectrophotometer. The absorption at 590 nm is proportional to the number of attached cells.

[2] = test system: HCT-116 colon cancer cell line; assay: Cell proliferation assay (crystal violet, 590 nm); assay type: cell-based
Experimental: as §1, §2

DLD-1 cells = assay: Soft agar colony formation assay (anchorage-independent proliferation); assay type: cell-based; conditions: 10 μM, 6 days in soft agar
Experimental: (§3) DLD-1, HCT-116, and HT-29 cells were cultured for 6 days in soft agar in the presence of DMSO (control), 10 μM BAY 11-7082, or 10 μM BAY 11-7085. The data points represent the means of colony counts per field (20×) performed in 5 different regions of the culture dishes. The data shown represent a typical result of two separate experiments. FIGS. 2B,C, show athymic mice received subcutaneous injections of HT-29 (B) or HCT-116 (C) cells, followed by […] of BAY 11-7085 (dark bars) or DMSO (white bars) intraperitoneally twice weekly. The bars represent the 25-75% ranges of the tumor volumes and the horizontal lines in the bars are the medians. Using the Kruskal-Wallace statistical test to compare the median tumor volumes between BAY 11-7085 and DMSO yielded a p-value of 0.005 for HT-29 cells but >0.05 for HCT-116 cells.
(§4) Anchorage-independent cell growth is a hallmark of cancer cells and is a good correlate to tumorigencity in vivo. Therefore, the effects of BAY 11-7082 and BAY 11-7085 were examined on colon cancer cell growth using the soft agar colony formation assay.

HT-29 cells = assay: as above; assay type: cell-based; conditions: 10 μM, 6 days in soft agar
Experimental: as §3, §4

[3] = test system: transiently suspended HT-29 cells; assay: Apoptosis (annexin V) of transiently suspended cells allowed to readhere; assay type: cell-based
Experimental: HT-29 cells that were either transiently suspended with trypsin-EDTA or adherent for three days, were treated at time zero with DMSO or 10-100 μM BAY 11-7085. The percent of apoptotic cells was determined using the annexin V flow cytometry assay and graphed versus the dose of BAY 11-7085. […] The cells were fixed and immunostained with an NF-κB p65 subunit monoclonal antibody.
The transiently suspended cells were lysed and allowed to bind to DNA oligonucleotides, containing the NF-κB consensus binding site, that were immobilized to 96-well plates. NF-κB protein bound to the oligonucleotides was detected by an antibody to the p65 subunit that only recognized p65 that is bound to DNA. The positive control was HeLa cells that were stimulated with TNFα A control was performed using excess free NF-κB oligonucleotides (Competitor). […] NF-κB binding activity was determined by the TransAM assay as in FIG. 5A. […] The data shown represent typical results of three separate experiments. […] An immunoblot for COX-2 was performed.
The percentage of apoptotic cells was determined using the annexin V assay. The data points represent the averages of three experiments; bars, ±SE. E. DLD-1 and F. HT-29 cells were transduced with an adenovirus containing the IκB super-repressor construct. After 3 days, the cells were transiently suspended and allowed to readhere in the presence of subapoptotic concentrations of BAY 11-7085 or DMSO (vehicle) for 8 h. The data are expressed as fractions of cells surviving compared with the controls (no adenovirus) and were quantitatively determined by staining the remaining adherent cells with crystal violet.
Single cell suspensions were plated at 100,000 cells per well in 24-well plates in media containing DMSO, BAY 11-7082, BAY 11-7085, or MG-132 for 8-24 hours in an incubator. Alternatively, DMSO, BAY 11-7082, BAY 11-7085, or MG-132 were added to cells that were confluent and adherent for several days. The nonadherent cells were aspirated off with the media and spun for 3 minutes at 2,000 rpm in 15 ml polypropylene tubes. The adherent cells were washed twice with PBS, dispersed in trypsin, and spun down for 3 minutes at 2,000 rpm in 15 ml polypropylene tubes. The nonadherent and adherent cells were resuspended in 1× binding buffer (10 mM HEPES/NaOH, pH 7.4, 140 mM NaCl, and 2.5 mM CaCl2) to a final concentration of 10^6 cells/ml. 100 μl of the cell solution were transferred to a 5 ml culture tube and incubated with 5 μl of annexin V-FITC-conjugated monoclonal antibody (Pharmingen) and 10 μl of propidium iodide (from a 50 μg/ml stock solution made in PBS) in the dark at 25° C. for 15 minutes. 400 μl of binding buffer was added to each tube and the cells were analyzed by flow cytometry immediately. The percent of apoptosis was determined as the percent of annexin V-positive, propidium iodide-negative cells of the total cells counted.
Various concentrations of BAY 11-7085 were added to HT-29 cells that were transiently suspended in trypsin-PBS for approximately 15 minutes before replating. The transiently suspended cells were quickly allowed to readhere in order to prevent anoikis. Alternatively, BAY 11-7085 was added to adherent HT-29 cell monolayers.

[4] = test system: TNFα-induced NF-κB activation; conditions: Pierce et al., 1997; cited from earlier work
[5] = summary statement, concentration not given

Compound | inhibition of growth of cancer cell line [1, 5] | inhibition of growth of cancer cell line [2, 5] | inhibition of anchorage-independent proliferation (DLD-1 cells) | inhibition of anchorage-independent proliferation (HT-29 cells) | share of transiently suspended, readhering cells that became apoptotic ([3]; HT-29) | effect on TNFα-induced NF-κB activation [4] | inhibition of cell proliferation ([1]; 10 μM, cultured 8 days) | inhibition of cell proliferation ([2]; 10 μM, cultured 8 days) | in vitro apoptotic threshold during readhesion ([3]; HT-29) [µM] | BAY 11-7085-induced apoptosis during readhesion ([3]; HT-29, transiently suspended, treated, allowed to readhere 8 hours) | apoptosis of transiently suspended cells ([3]; HT-29 suspended in trypsin about 15 minutes then replated, 10-100 μM)
Cc1ccc(S(=O)(=O)/C=C/C#N)cc1 [BAY 11-7082, (2E)-3-(tolysulfonyl)-2-propenenitrile] | inhibits growth | inhibits growth | significantly inhibited | significantly inhibited | vast majority | inhibit |  |  |  |  | 
CC(C)(C)c1ccc(S(=O)(=O)/C=C/C#N)cc1 [BAY 11-7085, (2E)-3-[4-(tertiarybutylphenyl)sulfonyl]-2-propenenitrile] |  |  | significantly inhibited | significantly inhibited | vast majority | inhibit | greatly inhibited cell proliferation | greatly inhibited cell proliferation | > 20 | showed the same propensity for BAY 11-7085-induced apoptosis | caused a significant increase in apoptosis
